pIC50: −log10 of the molar value. Several values for one entry are separate records, joined by “and”; a condition that tells them apart may be missing. Equal entries are not always repeated. Entries after “also recorded” stand apart in the source; their conditions may differ. Where two headings read alike, the source gives them in different places.

The record followed here is EP4203925B1, “CANNABINOID COMBINATIONS AND THEIR USE IN THE TREATMENT OF CANCER” (priority 2020, dated 2022).

The subject of one data set is breast cancer cell lines. In words: MTT cell viability / checkerboard assay, cell line not given. As to conditions: Homo sapiens, read-out: IC50 values.
Another data set has as its system MDA-MB-231 cells. In words: MTT cell viability assay with Chou-Talalay median-effect / combination index analysis. As to conditions: for IC50 / IC75 / IC90: Homo sapiens, MDA-MB-231, 48 h; for IC50: read-out: Dm (µM) IC50; for IC75: read-out: Dm (µM) IC75; for IC90: read-out: Dm (µM) IC90.
Another data set has as its system MCF-7 cells. The description is as above. To be noted: for IC50 / IC75 / IC90 / pIC50: Homo sapiens; for IC50 / IC75 / IC90: MCF7, 48 h; for IC50: read-out: Dm (µM) IC50; for IC75: read-out: Dm (µM) IC75; for IC90: read-out: Dm (µM) IC90; for pIC50: MCF7, read-out: Required concentration of cannabinoids: Individual.
The next data set has as its system white blood cells. Kind of data set: Toxicity screening in white blood cells (MTT). The class given is cell-based, human. As to conditions: B6 (42 µM), C6 (43 µM), 24 hours. On the procedure:
MTT solution (5mg/ml, 20 µl) was added to existing media in the wells and the cells were incubated for 3 hours at 37 °C. After the 3 hours, the plate was centrifuged at 1000 x g for 10 minutes, the spent media removed and the formazan crystals solubilised in 100 µl DMSO. The plate was then shaken for 1 minute and the absorbance read at 550nm.
Blood samples were obtained from healthy volunteers (n=3, 16 ml/person) in ethylenediaminetetraacetic acid (EDTA) vacutainers. The samples were centrifuged at 500 x g for 10 minutes, the plasma (top layer) removed and the buffy coat collected. The buffy coat was then centrifuged at 2000 x g for 10 minutes to remove residual plasma while retaining the buffy coat. Lysis buffer (0.16M NH4Cl, 0.01 M KHCO3, 6 mM EDTA; pH 7.3) was added to the buffy coat in a 9:1 ratio (lysis buffer:buffy coat) and the mixture vortexed for 10 seconds, followed by a 10 minute incubation at room temperature. The sample was then centrifuged at 2000 x g for 10 minutes and the pellet retained (containing white blood cells). […] White blood cells were stained with trypan blue and counted using a haemocytometer. […]
The potential toxicity induced by the selected treatments (B6 and C6) were evaluated in two ways: 1) screening in the normal breast cells, MCF-10A and 2) determining the cytotoxicity to white blood cells isolated from human volunteers (Figure 14).

As usually defined, the IC50 is the concentration that inhibits the measured activity by half. What is called IC75 is the concentration at which the effect reaches the 75% level. What is called IC90 is the point of the concentration-response curve where the effect stands at 90%. Regarding `C=C(C)[C@@H]1CCC(C)=C[C@H]1c1c(O)cc(CCCCC)cc1O` [CBD, cannabidiol], the pIC50 in the data set on breast cancer cell lines is 4.72. Also, in the data set on MDA-MB-231 cells, the IC50 is 14.7 µM, the IC75 was 26.4 µM and the IC90 amounted to 47.4 µM. For the same compound, in the data set with MCF-7 cells, the IC50 was determined as 20.6 µM, the IC75 turned out to be 30.2 µM, the IC90 came to 44.4 µM and the pIC50 was 4.69.
`CCCCCc1cc(O)c(C/C=C(\C)CCC=C(C)C)c(O)c1` [CBG, cannabigerol]: in the data set on breast cancer cell lines, the pIC50 was 4.52. In addition, in the data set with MDA-MB-231 cells, the IC50 came out at 24.9 µM, the concentration for an effect of 75% (IC75) stood at 28.1 µM and the IC90 was determined as 31.8 µM. For the same compound, in the data set on MCF-7 cells, the IC50 came out at 26.9 µM, the 75% effect concentration (IC75) worked out at 33 µM, the IC90 came to 40.5 µM and the pIC50 was 4.57.
On to `CCCCCc1cc(O)c2c(c1)OC(C)(C)c1ccc(C)cc1-2` [CBN, cannabinol], for which the pIC50 with breast cancer cell lines is 4.60. Besides, in the data set with MDA-MB-231 cells, the IC50 worked out at 22.5 µM, the IC75 turned out to be 25.7 µM and the IC90 stood at 29.3 µM. In the data set on MCF-7 cells, the IC50 turned out to be 23.4 µM, the IC75 came to 26.6 µM, the IC90 amounted to 30.2 µM and the pIC50 was 4.63.
For `CCCCCc1cc(O)c2c(c1)OC(C)(C)[C@@H]1CCC(C)=C[C@@H]21` [THC, Δ^9-tetrahydrocannabinol], in the data set with breast cancer cell lines, the pIC50 was 4.49. In the data set with MDA-MB-231 cells, the “Dm (µM) IC75” value was found to be 38.33 µM, the IC50 turned out to be 30 µM and the IC90 was 49 µM. In addition, in the data set with MCF-7 cells, the “Dm (µM) IC75” value is recorded as 43.11 µM; the “Required concentration of cannabinoids: Individual” value was 39.23 µM (2×) and 47.24 µM (2×); the IC50 was 32.2 µM; the IC90 turned out to be 57.7 µM. For the same compound, in the data set on MCF-7 cells, the pIC50 was 4.49.
Turning to `CC[C@@]1(O)C(=O)OCc2c1cc1n(c2=O)Cc2cc3ccccc3nc2-1` [camptothecin], in the data set with white blood cells, the “growth inhibition / cytotoxicity” value is on record as “lack of growth inhibition; also recorded: limited cytotoxicity”.
